Data taken from paper PMC12563652 (International Journal of Molecular Sciences, 2025).
“Also recorded” adds a separate entry of the source.

How the values were obtained:
3T3-L1 adipocytes [1] = test: Phospholipidosis, HCS LipidTOX imaging in 3T3-L1 adipocytes; format: cell-based, mouse
Description: (§1) The 3T3-L1 mouse embryonic fibroblast cell line (ATCC CRL-11605) was cultured according to the standard protocol in Dulbecco’s Modified Eagle Medium (DMEM) supplemented with 10% bovine calf serum, 100 µg/mL streptomycin, and 100 IU/mL penicillin, at 37 °C in a humidified atmosphere containing 5% CO2. Cells were seeded at a density of 10,000 cells/well in collagen type I–coated (10 µg/mL) 96-well plates and allowed to attach for 24 h. Differentiation was initiated by replacing the medium with induction medium composed of DMEM, 0.5 mM 3-isobutyl-1-methylxanthine (IBMX), 1 µM dexamethasone, and 10% fetal bovine serum (FBS). After 48 h (differentiation day 2), the medium was replaced with DMEM supplemented with 10% FBS and 10 µg/mL human recombinant insulin. After an additional 24 h, the medium was replaced with DMEM supplemented with 10% bovine calf serum, 100 µg/mL streptomycin, and 100 IU/mL penicillin. The medium was refreshed every 24 h for 10 consecutive days to allow full differentiation into adipocytes.
(§2) Lipid accumulation and phospholipidosis were evaluated using the HCS LipidTOX Phospholipidosis and Steatosis Detection Kit (Thermo Fisher Scientific). Cells were cultured in black, clear-bottom 96-well plates and treated as described. Next, cells were fixed with 4% paraformaldehyde (15 min), washed with PBS, and stained with LipidTOX Green Neutral Lipid Stain (for steatosis) and LipidTOX Red Phospholipidosis Detection Reagent, prepared according to the manufacturer’s instructions. Nuclei were counterstained with Hoechst 33342 (2 µg/mL). Image acquisition and quantitative analysis were performed using High Content Screening (HCS) technology on the ImageXpress XLS system (Molecular Devices). Lipid droplet and phospholipid content were quantified using automated image analysis pipelines.

Danio rerio larvae = test: Nile red fluorescence fat metabolism assay in zebrafish larvae; format: in vivo; conditions: 10 µg/mL, 48 h incubation of larvae
Description: The study was conducted based on the method described earlier by Jones et al.. Starting at 3 days after fertilization (dpf), larvae were placed into 6-well plates and incubated with the test solutions (compounds in E3: JP-14 at a concentration of 10 μg/mL or resveratrol or E3 alone) for 48 h. Resveratrol solution (20 μg/mL) was used as the reference compound. After 24 h, the solutions were replaced with new ones containing Nile red dye (9-diethylamino-5H-benzo[α]phenoxazine-5-one, Pol-aura, Poland) at a concentration of 100 ng/mL. Nile red is a selective fluorescent lipid dye used to stain lipid droplets. Incubation with the dye was therefore 24 h. Stock solution of Nile red was prepared earlier by dissolving it in acetone to a concentration of 500 μg/mL. After the incubation period, the larvae were rinsed 3 times with 0.1 M phosphate-buffered, pH 7.4 (PBS, Sigma-Aldrich, Schnelldorf, Germany) and anesthetized with cold […] tricaine solution (Sigma-Aldrich, Schnelldorf, Germany). Next, they were visualized under a fluorescence microscope (Zeiss.Discovery.V8, Zeiss, Oberkochen, Germany) and analyzed with ImageJ FIJI program (version 2.17.0).

3T3-L1 adipocytes [2] = test: Steatosis, HCS LipidTOX imaging in 3T3-L1 adipocytes; format: cell-based, mouse
Description: as §1, §2

[3] = system: platelet aggregation in rat whole blood; test: In vitro collagen-induced platelet aggregation in rat whole blood (impedance aggregometry); format: cell-based; conditions: 50–200 µM, collagen 1.6 µg/mL
Description: In vitro platelet aggregation assays were conducted using freshly collected whole blood from rats, utilizing the Multiplate platelet function analyzer (Roche Diagnostics, Mannheim, Germany)—a five-channel device that measures electrical impedance, following methods described previously. Upon stimulation, platelets adhere to and aggregate on dual metal sensors within the test cuvette, causing an increase in electrical resistance, which corresponds to the number of platelets attached to the electrodes.
Blood was collected from the carotid artery of the rat into tubes coated with hirudin (S-Monovette, Sarstedt, Germany). A volume of 300 μL of the anticoagulated blood was mixed with 300 μL of prewarmed isotonic saline that contained the test compound or a vehicle control (0.1% DMSO) and incubated at 37 °C for 3 min under continuous stirring. Aggregation was triggered by adding collagen (final concentration: 1.6 µg/mL). Platelet activity was monitored for 6 min. Multiplate V2.04 software calculated the area under the curve (AUC) for each measurement to determine average platelet response.

[4] = target: T1, 5-HT2C serotoninergic receptor (Homo sapiens, UniProt P28335); test: 5-HT2C intrinsic activity, agonist mode (AequoScreen calcium mobilization); format: cell-based; conditions: n.a. = no activity at 10–5 M
T1 sequence (P28335 33-458): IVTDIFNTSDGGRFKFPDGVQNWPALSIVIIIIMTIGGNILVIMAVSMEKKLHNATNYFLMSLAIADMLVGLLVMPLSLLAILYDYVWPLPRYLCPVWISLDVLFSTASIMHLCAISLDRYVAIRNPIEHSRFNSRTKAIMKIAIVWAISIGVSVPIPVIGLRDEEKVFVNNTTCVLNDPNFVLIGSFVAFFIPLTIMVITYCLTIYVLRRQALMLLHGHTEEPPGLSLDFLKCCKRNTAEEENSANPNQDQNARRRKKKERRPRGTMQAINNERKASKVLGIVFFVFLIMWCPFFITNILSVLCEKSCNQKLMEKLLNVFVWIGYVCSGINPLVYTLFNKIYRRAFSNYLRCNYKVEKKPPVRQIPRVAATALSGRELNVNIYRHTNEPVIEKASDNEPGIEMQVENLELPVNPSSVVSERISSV
Description: The determination of intrinsic activity will be performed in accordance with the manufacturer’s Aequoscreen methodology—Perkin Elmer.
The cell density in the 96-well format was 5000 cells per well. Cell preparation for the assay was performed according to the manufacturer’s instructions for AequoScreen (PerkinElmer, Waltham, MA, USA). […] The cells suspension was applied onto the ligands with the injectors of the POLARstar optima reader (BMG Labtech, Ortenberg, Germany). […] The concentration and dilution series having four replicates were prepared as instructed in the AequoScreen Starter Kit Manual (PerkinElmer, Waltham, MA, USA). The wells received cell injections along with either the standard agonist or the compounds being evaluated, while the POLARstar optima reader documented the emitted light over a duration of 20 s. In the antagonist evaluation, cells were administered (50 μL) into the assay plate alongside antagonist solutions (50 μL).

human TAAR1 = target: T2, human TAAR1 (Homo sapiens, UniProt Q96RJ0); test: TAAR1 agonist activity, Hit Hunter cAMP assay; format: cell-based
T2 sequence (Q96RJ0 1-339): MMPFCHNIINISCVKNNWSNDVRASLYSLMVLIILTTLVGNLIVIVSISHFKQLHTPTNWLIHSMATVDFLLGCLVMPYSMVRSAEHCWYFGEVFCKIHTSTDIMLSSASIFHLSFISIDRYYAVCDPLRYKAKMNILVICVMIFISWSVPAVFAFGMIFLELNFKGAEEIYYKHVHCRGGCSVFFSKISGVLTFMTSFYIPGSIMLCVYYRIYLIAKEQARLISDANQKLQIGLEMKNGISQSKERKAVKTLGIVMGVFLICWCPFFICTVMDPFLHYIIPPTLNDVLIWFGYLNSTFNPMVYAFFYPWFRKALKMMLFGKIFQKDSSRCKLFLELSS
Description: The intrinsic activity of the TAAR1 receptor will be assessed according to the manufacturer’s protocol, using the Hit Hunter® cAMP assay by DiscoverX. This assay enables monitoring of GPCR activation in cells stably expressing TAAR1 by measuring changes in the level of the secondary messenger, cAMP. The cAMP Hunter cell lines were cultured from frozen stocks following standard procedures. Cells were plated in white-walled 384-well microplates at a total volume of 20 µL per well and incubated at 37 °C for the required period before analysis. To assess agonist activity, cells were exposed to the test compound to trigger a response. The culture medium was then removed and replaced with 15 µL of a 2:1 mixture of HBSS and 10 mM Hepes containing the cAMP XS+ antibody reagent. Sample stocks were diluted to prepare a 4× concentration in assay buffer. Subsequently, 5 µL of the 4× sample was added to each well, and the plates were incubated at either 37 °C or room temperature for 30 or 60 min. The vehicle was used at a concentration of 1%. After incubating the compounds for the required time, the assay signal was produced by adding 20 µL of the cAMP XS+ ED/CL lysis cocktail and incubating for one hour. This was followed by a three-hour incubation with 20 µL of the cAMP XS+EA reagent at room temperature. After signal development, the microplates were read using a PerkinElmer Envision Reader to detect chemiluminescence.

3T3-L1 cells = test: Lipid accumulation (AdipoRed assay) in 3T3-L1 cells; format: cell-based, mouse
Description: as §1
On day 10 of differentiation, cells were treated with test compounds for 24 h. To investigate the involvement of the TAAR1 receptor, cells were pre-treated for 15 min with the selective TAAR1 antagonist RTI-7470-44 (40 nM) before compound exposure. After incubation, the culture medium was removed, and wells were gently rinsed with 200 µL PBS and refilled with 200 µL PBS. AdipoRed reagent (5 µL; Lonza) was added to each well, mixed, and incubated at room temperature for 10 min. Fluorescence was measured using the POLARstar Omega plate reader (excitation 485 nm, emission 535 nm).

## [H]/N=C(\N)NN=Cc1c(Cl)cncc1Cl [JP-14, (E)-2-((3,5-Dichloropyridin-4-yl)Methylene)Hydrazine-1-Carboximidamide]
3T3-L1 adipocytes [1]; 10 µM + RTI-7470-44 (40 nM)
  effect on phospholipidosis under TAAR1 blockade: reversed
3T3-L1 adipocytes [1]; 10 µM, vs vehicle
  phospholipidosis (phospholipid accumulation): significantly reduced
Danio rerio larvae
  Nile red detectable fat: decrease
3T3-L1 adipocytes [2]; 10 µM + RTI-7470-44 (40 nM)
  effect on steatosis under TAAR1 blockade: abolished
3T3-L1 adipocytes [2]; 10 µM, vs vehicle
  steatosis (neutral lipid accumulation): statistically significant decrease
[3]
  effect on collagen-induced platelet aggregation: did not alter; also recorded: did not influence
[4]
  5-HT2C Ago EC50: did not exhibit any measurable agonistic or antagonistic activity
Human TAAR1; TAAR1-expressing cells
  maximum cell stimulation (cAMP level) compared with the highest concentration of tyramine: about twice as high
Human TAAR1; cAMP accumulation, n.a. = no activity at 10–5 M, read-out: TAAR1 Ago EC50
  EC50: 11.3 ± 1.4 µM
3T3-L1 cells; 10 µM + RTI-7470-44 (40 nM)
  lipid-lowering effect under TAAR1 blockade: completely abolished
3T3-L1 cells; 10 µM, compared to vehicle-treated controls
  lipid accumulation (intracellular lipid content), reduction: 35%
